Experimental data taken from article PMC11352409, “Subtype-Specific Ligand Binding and Activation Gating in Homomeric and Heteromeric P2X Receptors” (Biomolecules, 2024).

Experiments:
Type in all cases: cell-based
[1] = biological target: T1, human P2X2 receptors (Homo sapiens, UniProt Q9UBL9); assay: Whole-cell patch-clamp concentration-activation, HEK293 cells stably expressing hP2X2
T1 construct: expressed in transfected cells
T1 sequence (Q9UBL9 1-404 isoform Q9UBL9-2): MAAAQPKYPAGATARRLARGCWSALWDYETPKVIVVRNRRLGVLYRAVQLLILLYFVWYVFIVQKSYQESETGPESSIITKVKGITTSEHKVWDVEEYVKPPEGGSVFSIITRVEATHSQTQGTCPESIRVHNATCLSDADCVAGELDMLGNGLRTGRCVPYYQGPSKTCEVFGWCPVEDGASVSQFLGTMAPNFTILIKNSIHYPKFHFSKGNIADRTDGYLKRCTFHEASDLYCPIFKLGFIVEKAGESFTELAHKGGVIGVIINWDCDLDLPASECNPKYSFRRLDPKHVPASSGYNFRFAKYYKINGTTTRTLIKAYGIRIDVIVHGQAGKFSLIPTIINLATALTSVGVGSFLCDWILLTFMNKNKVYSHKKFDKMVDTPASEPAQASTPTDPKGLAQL
Experimental: (§1) Human P2X receptors were expressed from HEK293 cell lines containing an inducible promoter system (Flp-In-T-REx 293, Invitrogen, Waltham, MA, USA). The used cell lines were: hP2X2 B (RRID: AC line CVCL_D6U1), hP2X3 (RRID: AC line CVCL_D6U3), and hP2X2/3 (RRID: AC line CVCL_D6U2). The cells were cultured in MEM supplemented with non-essential amino acids (Gibco, Waltham, MA, USA), 10% FCS, and antibiotics, according to the manufacturer’s instructions. For stable cell lines, Flp-In-T-REx 293 cells were transfected using the calcium phosphate method with a mixture of plasmids (0.3 µg pcDNA5/FRT/TO P2X gene and 1.5 µg pOG44) and selected for hygromycin resistance. The cells were seeded on glass coverslips for electrophysiological measurements and used 24–48 h after tetracycline induction ([…]).
(§2) Membrane currents were recorded with a standard patch-clamp technique in the whole-cell configuration. The patch pipettes were pulled from borosilicate glass (ID 1.0 mm, OD 2.0 mm; VITROCOM, Mountain Lakes, NJ, USA) using a micropipette puller (P-97, Sutter Instrument, Novato, CA, USA). The pipettes were filled with intracellular solution containing (mM) 142 NaCl, 5 BAPTA, 5 EGTA, and 10 HEPES at pH 7.4. The pipette resistance was from 2.0 to 6.0 MΩ. The bath solution contained (mM) 142 NaCl, 10 EGTA, 10 HEPES, and 10 glucose at pH 7.4. To increase the speed of recovery from the hP2X3 receptors, we additionally used a bath solution containing (mM) 142 NaCl, 10 HEPES, 10 glucose, 2 CaCl2, and 1 MgCl2. The cells were lifted for recording from the chamber bottom by the patch pipette and positioned in front of the outlet of the application pipette.
(§3) Solutions switches were carried out with the application pipette that had three barrels (inner diameter ~600 µm, Warner Instruments) controlled by a step motor (SF-77B, Warner Instruments). The speed of the laminar solution flow out of the barrels was estimated to be 2–5 cm/s. One barrel contained a control solution and another was connected to a solution selector (Vici Valco Instruments), which allowed us to apply different test solutions by exchanging the solution during the interval (60 sec for P2X2 and P2X2/3 receptors, 180 s for P2X3 receptors) of applying the control solution. Cells expressing hP2X3 were washed with 3 Units/mL apyrase for 30 min to remove ATP. To ensure the comparability of the data points between each application, we rinsed hP2X3 with the following solution for 3 min after each ATP application (mM): 142 NaCl, 10 HEPES, 10 glucose, 2 CaCl2, and 1 MgCl2 at pH 7.4. After sufficient recovery, we switched to the bath solution for 10 s and then to the solution of interest. The speed of the switch around a whole cell was estimated to be below 10 ms by switching between different salt solutions.
(§4) The saturation of activation was determined with ATP at 100 µM. The currents were recorded with a HEKA EPC 10 amplifier in combination with the patchmaster software. The sampling rate was 10 kHz and the recordings were on-line filtered at 2.9 kHz using a four-pole Bessel filter. The currents were recorded at a constant holding potential of −50 mV and the series resistance was compensated with the patchmaster software up to 80%.
(§5) The concentration–activation relationships from whole-cell measurements in the HEK293 cells were obtained from the maximum currents during ATP application. These current amplitudes were normalised with respect to the current at saturating ATP (100 µM) and the resulting data points were fitted I/ImaxATP = Amp/(1 + (EC50/[X])^h) (1) with the Origin 2019® software using a non-linear curve fitting routine. I is the actual current amplitude and ImaxATP is the maximum current amplitude at saturating ATP. The amplitude Amp is the efficacy of the respective ligands. EC50 is the ligand concentration generating the half-maximum current and h is the respective Hill coefficient. [X] is the actual concentration of ATP to be tested. […]

[2] = biological target: T2, human P2X3 receptors (Homo sapiens, UniProt P56373); assay: Whole-cell patch-clamp concentration-activation, HEK293 cells stably expressing hP2X3; conditions: for Hill: hP2X3, Hill coefficient of concentration-activation fit; for Effect (Fold in ATP Potency): hP2X3, relative to ATP; for Effect (Fold in ATP Efficacy): hP2X3, relative to current at 100 µM ATP; for EC50: hP2X3, whole-cell, -50 mV, divalent-cation-free bath with 10 mM EGTA, normalised to 100 µM ATP
T2 construct: expressed in transfected cells
T2 sequence (P56373 1-397): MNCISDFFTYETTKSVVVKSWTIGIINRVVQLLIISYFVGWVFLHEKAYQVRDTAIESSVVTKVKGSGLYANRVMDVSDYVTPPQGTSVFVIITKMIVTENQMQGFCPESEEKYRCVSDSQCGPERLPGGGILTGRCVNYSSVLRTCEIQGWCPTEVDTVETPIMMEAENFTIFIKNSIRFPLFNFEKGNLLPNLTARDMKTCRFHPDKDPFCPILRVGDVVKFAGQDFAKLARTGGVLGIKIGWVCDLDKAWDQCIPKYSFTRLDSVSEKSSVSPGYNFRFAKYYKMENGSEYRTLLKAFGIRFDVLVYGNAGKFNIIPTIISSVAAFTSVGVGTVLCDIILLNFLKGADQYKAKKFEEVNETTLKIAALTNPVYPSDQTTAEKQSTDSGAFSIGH
Experimental: as §1, §2, §3, §4, §5

[3] = biological target: T3, human P2X2/3 receptors (Homo sapiens, UniProt P56373+Q9UBL9); assay: Whole-cell patch-clamp concentration-activation, HEK293 cells stably expressing hP2X2/3; conditions: for Hill: hP2X2/3, Hill coefficient of concentration-activation fit; for Effect (Fold in ATP Efficacy): hP2X2/3, relative to current at 100 µM ATP; for EC50: hP2X2/3, whole-cell, -50 mV, divalent-cation-free bath with 10 mM EGTA, normalised to 100 µM ATP
T3 construct: expressed in transfected cells
T3 sequence (Q9UBL9 1-404 isoform Q9UBL9-2): T1 sequence (Q9UBL9 1-404 isoform Q9UBL9-2)
T3 sequence (P56373 1-397): T2 sequence (P56373 1-397)
Experimental: as §1, §2, §3, §4, §5

Structure (SMILES) | Hill ([1]; hP2X2, Hill coefficient of concentration-activation fit) | Effect (Fold in ATP Potency) ([1]; hP2X2, relative to ATP) [fold] | Effect (Fold in ATP Efficacy) ([1]; hP2X2, relative to current at 100 µM ATP) [fold] | Agonist behaviour (current response) ([1]; hP2X2, result in words) | EC50 ([1]; hP2X2, whole-cell, -50 mV, divalent-cation-free bath with 10 mM EGTA, normalised to 100 µM ATP) [nM] | Hill [2] | Effect (Fold in ATP Potency) [2] [fold] | Effect (Fold in ATP Efficacy) [2] [fold] | EC50 [2] [nM] | Hill [3] | Effect (Fold in ATP Efficacy) [3] [fold] | Agonist behaviour (current response) ([3]; hP2X2/3, result in words) | EC50 [3] [nM] | Elevation of activation level on co-application with ATP ([1]; hP2X2, 10 µM α,βMe-fATP co-applied with 0.1 µM ATP, versus ATP alone) | Effect of ligand alone on current ([1]; hP2X2, α,βMe-fATP alone (10 µM)) | Effect (Fold in ATP Potency) ([3]; hP2X2/3, relative to ATP) [fold]
COCC[N+]1=C(C=CC=C2N(CCCCCC(=O)NCCCCCCSc3nc(N)c4ncn(C5OC(COP(=O)(O)OP(=O)(O)OP(=O)(O)O)C(O)C5O)c4n3)c3ccc(S(=O)(=O)O)cc3C2(C)C)C(C)(C)c2cc(S(=O)(=O)[O-])ccc21 (centres unmarked) [fATP, 2-[DY-547P1]-AHT-ATP] | 1.4 ± 0.1 | 0.2 | 1.0 | full agonist | 4600 ± 300 | 1.6 ± 0.1 | 0.9 | 0.8 | 1300 ± 100 | 0.9 ± 0.2 | 0.4 | partial agonist | 700 ± 300 | – | – | –
COCC[N+]1=C(C=CC=C2N(CCCCCC(=O)NCCCCCCSc3nc(N)c4ncn(C5OC(COP(=O)(O)CP(=O)(O)OP(=O)(O)O)C(O)C5O)c4n3)c3ccc(S(=O)(=O)O)cc3C2(C)C)C(C)(C)c2cc(S(=O)(=O)[O-])ccc21 (stereo not drawn) [α,βMe-fATP, 2-[DY-547P1]-AHT-α,βMe-ATP] | – | – | – | – | – | 3.5 ± 0.0 | 0.1 | 1.0 | 8100 | 4.4 ± 3.5 | 0.03 | – | 1500 ± 600 | approximately 55% | no discernible effect | 1.8
